# Measurements as given in ChEMBL document CHEMBL1201862, “PubChem BioAssay data set” (2004).
# Activity calls are given as the source filed them.
# Experiments:
# Aminopeptidase N = target: T1, Aminopeptidase N (Plasmodium falciparum FcB1/Columbia, UniProt O96935); assay: malaria alanyl aminopeptidase activity blockers – biochemical, fluorogenic H-Leu-NHMec substrate, 1536-well (AID 1445); parameters: species or system Plasmodium falciparum 3D7, 3D7
# T1 sequence (O96935 whole entry): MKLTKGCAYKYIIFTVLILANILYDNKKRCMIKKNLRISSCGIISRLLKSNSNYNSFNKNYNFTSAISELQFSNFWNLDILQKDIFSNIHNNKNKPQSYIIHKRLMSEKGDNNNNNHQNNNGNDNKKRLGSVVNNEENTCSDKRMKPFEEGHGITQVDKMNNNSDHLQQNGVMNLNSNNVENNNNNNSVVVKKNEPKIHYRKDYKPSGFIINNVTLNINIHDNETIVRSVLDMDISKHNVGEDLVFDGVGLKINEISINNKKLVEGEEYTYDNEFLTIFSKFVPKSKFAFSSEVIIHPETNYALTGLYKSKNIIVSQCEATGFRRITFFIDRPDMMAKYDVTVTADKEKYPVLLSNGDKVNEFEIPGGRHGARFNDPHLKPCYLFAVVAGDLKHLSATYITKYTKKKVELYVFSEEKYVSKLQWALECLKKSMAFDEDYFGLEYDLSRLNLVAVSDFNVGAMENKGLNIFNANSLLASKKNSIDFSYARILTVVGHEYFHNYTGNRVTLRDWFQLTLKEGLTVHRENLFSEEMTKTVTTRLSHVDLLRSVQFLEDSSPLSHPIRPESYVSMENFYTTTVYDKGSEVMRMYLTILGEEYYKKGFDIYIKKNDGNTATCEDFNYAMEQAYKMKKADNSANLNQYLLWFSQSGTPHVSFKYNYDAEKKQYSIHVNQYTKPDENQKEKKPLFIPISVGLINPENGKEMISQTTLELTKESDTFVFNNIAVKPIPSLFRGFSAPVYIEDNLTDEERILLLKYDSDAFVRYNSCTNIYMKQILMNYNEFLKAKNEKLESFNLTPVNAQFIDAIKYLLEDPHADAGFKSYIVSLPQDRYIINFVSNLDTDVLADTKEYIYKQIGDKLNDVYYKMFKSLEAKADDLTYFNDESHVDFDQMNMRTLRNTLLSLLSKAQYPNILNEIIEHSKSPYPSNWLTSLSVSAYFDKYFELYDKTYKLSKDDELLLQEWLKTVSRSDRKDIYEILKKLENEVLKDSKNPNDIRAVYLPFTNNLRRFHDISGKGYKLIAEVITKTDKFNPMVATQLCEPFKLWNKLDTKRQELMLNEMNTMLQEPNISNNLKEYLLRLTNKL
# Prothrombin = Prothrombin (Homo sapiens, UniProt P00734); assay: Thrombin 1536 HTS Dose Response Confirmation. [Related pubchem assays: 1046 (Thrombin 1536 HTS; hits were confirmed in this assay)]; type: functional
# [1] = Luminescence Cell-Based Dose Confirmation HTS to Identify Activators of 5'UTR Stem-Loop Driven Alpha-Synuclein mRNA Translation in H4 Neuroglioblastoma Cells. [Related pubchem assays: 1829 (Project Summary), 1814 (Primary HTS)]; type: functional
# [2] = Luminescence Cell-Based Dose Response HTS to Identify Activators of Luciferase Translation or Activity in H4 […] Cells. [Related pubchem assays: 1829 (Project Summary), 1814 (Primary HTS)]; type: functional
# H4 = assay: Luminescence Cell-Based Dose Response HTS to Identify Activators of 5'UTR Stem-Loop Driven Prion Protein mRNA Translation in H4 Neuroglioblastoma Cells. [Related pubchem assays: 1829 (Project Summary), 1814 (Primary HTS)]; type: functional; details: Homo sapiens
# Vero [3] = assay: mammalian cell viability reduction – secondary assay, cytotoxicity control for West Nile virus antiviral project, dose response (AID 1650); type: functional; details: Chlorocebus sabaeus
# Vero [4] = assay: inhibition of WNV-induced cytopathic effect – cell-based, CPE readout (AID 1621); type: functional; details: Chlorocebus sabaeus
# [5] = Luminescence Cell-Based Dose Retest to Confirm Inhibitors of Cancer Stem Cells. [Related pubchem assays (depositor defined):AID2717, AID2721]; type: functional; details: Homo sapiens
# [6] = target: T2, Microphthalmia-associated transcription factor (Homo sapiens, UniProt O75030); assay: reducers of TRPM1 reporter luminescence, concentration series – cell-based, SK-MEL-5, cherry-picked, set 3, MITF inhibitor project, dose response (AID 493073); type: functional;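 further: SK-MEL-5 melanoma cells with luciferase driven by the MITF target TRPM1 promoter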
# T2 sequence (O75030 whole entry): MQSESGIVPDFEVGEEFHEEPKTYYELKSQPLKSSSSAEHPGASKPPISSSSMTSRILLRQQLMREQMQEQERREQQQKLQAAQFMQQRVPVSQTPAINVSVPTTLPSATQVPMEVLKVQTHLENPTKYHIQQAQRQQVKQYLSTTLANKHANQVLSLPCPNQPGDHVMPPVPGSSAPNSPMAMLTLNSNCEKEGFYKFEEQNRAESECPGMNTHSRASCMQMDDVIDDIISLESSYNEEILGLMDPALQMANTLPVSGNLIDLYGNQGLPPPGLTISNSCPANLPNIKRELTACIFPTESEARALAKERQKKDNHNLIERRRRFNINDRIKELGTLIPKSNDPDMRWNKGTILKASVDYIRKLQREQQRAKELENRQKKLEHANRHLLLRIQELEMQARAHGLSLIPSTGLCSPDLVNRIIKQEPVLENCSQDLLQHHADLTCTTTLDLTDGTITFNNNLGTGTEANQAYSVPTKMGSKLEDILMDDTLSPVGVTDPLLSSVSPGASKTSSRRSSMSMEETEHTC
# [7] = target: Mitogen-activated protein kinase 10 (Homo sapiens, UniProt P53779); assay: Dose response biochemical screening assay for inhibitors of c-Jun N-Terminal Kinase 3 (JNK3). [Related pubchem assays: 746 ]
# Sequence of Mitogen-activated protein kinase 10 (P53779 whole entry, the tested form may be a part): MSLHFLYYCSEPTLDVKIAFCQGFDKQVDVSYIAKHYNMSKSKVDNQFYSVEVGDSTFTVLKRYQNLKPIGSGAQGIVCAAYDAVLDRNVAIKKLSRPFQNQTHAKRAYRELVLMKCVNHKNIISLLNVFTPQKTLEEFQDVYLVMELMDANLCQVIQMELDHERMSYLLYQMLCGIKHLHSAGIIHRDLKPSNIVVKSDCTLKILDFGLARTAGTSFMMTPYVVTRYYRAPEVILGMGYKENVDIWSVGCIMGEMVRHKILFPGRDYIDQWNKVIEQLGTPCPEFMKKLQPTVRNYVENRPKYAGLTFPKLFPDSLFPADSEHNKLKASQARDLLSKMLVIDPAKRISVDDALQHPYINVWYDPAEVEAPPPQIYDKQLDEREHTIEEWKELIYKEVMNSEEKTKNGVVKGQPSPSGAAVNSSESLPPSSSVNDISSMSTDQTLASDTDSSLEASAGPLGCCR
# [8] = blockers of HIV-1 ZM109 envelope-driven cell-cell fusion – HeLa effector, CEM target cells, luciferase, cherry-pick, dose response (AID 652058); type: functional, cell-based;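 further: luciferase signal from HIV-1 Env mediated cell-cell fusion of effector and target cells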
# [9] = HIV-1 AD8 envelope cell-cell fusion blockers – cherry-pick, dose response (AID 652062); type: functional, cell-based;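 further: luciferase signal from cell-cell fusion driven by HIV-1 clade B AD8 Env; potency is for inhibitors of fusion seen as a drop in luminescence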
# [10] = luciferase reporter signal suppression in cells – H4 neuroglioma cells, luminescence, dose response (AID 1990); type: functional, cell-based
# [11] = Luminescence Cell-Based Dose Response HTS to Identify Inhibitors of 5'UTR Stem-Loop Driven Prion Protein mRNA Translation in H4 Neuroglioblastoma Cells. [Related pubchem assays: 1827 (Project Summary), 1813 (Primary HTS)]; type: functional
# [12] = alpha-synuclein stem-loop luciferase translation blockers – H4 neuroglioma cells, luminescence, confirmation (AID 1988); type: functional, cell-based
# Vero [13] = assay: cells; type: functional; details: Chlorocebus sabaeus
compound,measurement,setting,value
COc1ccccc1C1C=C(c2ccc(Cl)cc2)Nc2nc(N3C(=O)CCC3=O)nn21 (centres undefined),IC50,Aminopeptidase N,31.3 µM (active)
same,IC50,Prothrombin,5.84 µM (active)
C=C1C(=O)C=C[C@]2(C)C[C@@H]3OC(=O)[C@](C)(O)[C@H]3C[C@@H]12,EC50,[1],0.106 µM (active)
same,EC50,[2],0.153 µM (active)
same,EC50,H4,0.887 µM (active)
same,CC50,Vero [3],10.8 µM (active)
same,IC50,Vero [4],24.7 µM (active)
same,AC50,[5],4.35 µM (active)
same,AC50,[6],10.3 µM (active)
Clc1ccc2oc(-c3ccccc3)cc(=NCCCN3CCOCC3)c2c1,IC50,Prothrombin,24.2 µM (active)
N#Cc1c(NCc2ccccc2)ccnc1NCc1cccnc1,IC50,[7],3.96 µM (active)
same,AC50,[8],0.861 µM (active)
same,AC50,[9],5.44 µM (active)
COc1ccc(C2c3ccc4ccccc4c3Oc3ncn(CCN4CCOCC4)c(=N)c32)cc1OC (centres undefined),EC50,[10],> 120 µM (not active)
same,EC50,[11],33.4 µM (active)
same,CC50,Vero [3],> 100 µM (active)
same,EC50,[12],9.75 µM (active)
same,IC50,Vero [4],31.4 µM (active)
same,CC50,Vero [13],23.8 µM (active)
